We go through 103 compounds from PubChem BioAssay AID1996.

≈ marks a conversion by molar mass, not a printed value.

The conditions of the data set: buffer; pH 7.4; 200.0 µM.
For the compound `CN(C)C(Cc1ccccc1)C(=O)c1c[nH]c2ccccc12.Cl` (stereo not drawn), the solubility (kinetic) (in general, solubility judged after dilution from a stock solution rather than from solid) was over 49.3 µg/mL.
Turning to `Cc1ccc2c(c1)c1c3n2CCN(CC(N)=O)C3CCC1` (stereo not drawn), the solubility (kinetic) is 1.7 µg/mL (≈ 6 µM).
The value for `O=[N+]([O-])c1cccc(NC(=S)N2CCCC2)c1` was over 37.7 µg/mL.
`CCOc1ccccc1NC(=O)CN1C(=O)COc2ccc(C)cc21` registered a kinetic solubility of 2.4 µg/mL (≈ 7.05 µM).
As for `COC(=O)c1cc(OC)c(OC)cc1N1C(=O)CCCC1=O`, the figure is over 46.1 µg/mL; as for `O=C(NCc1ccccc1Cl)c1ccc[nH]1`, 31.5 µg/mL (≈ 134 µM).
For `COc1ccc2[nH]c3c(=O)n(Cc4ccncc4)cnc3c2c1`, the kinetic solubility is 7.3 µg/mL (≈ 23.8 µM).
As for `CC(=O)Nc1nnc(SCC(=O)NC2CCCC2)s1`, the figure is over 45.1 µg/mL; as for `Cc1ccc(CNC(=O)Nc2ccc(OC(F)(F)F)cc2)n1C`, 9.4 µg/mL (≈ 28.7 µM); as for `O=C(COC(=O)c1ccc2ccccc2n1)Nc1ccccc1Br`, 12.4 µg/mL (≈ 32.2 µM).
The value for `CCN1C(=O)/C(=C\c2cccc(OC(=O)c3ccco3)c2)SC1=S` was under 0.8 µg/mL; that for `COc1ccccc1NC(=O)CN(Cc1ccco1)C(=O)c1ccc(N2CCCC2=O)cc1` was 64.9 µg/mL (≈ 145 µM).
As for `CCc1nc(SCC(=O)Nc2cccc3ccccc23)[nH]c(=O)c1C`, the figure is 1.8 µg/mL (≈ 5.09 µM); as for `Cc1ccc(C(=O)CNc2ccccc2)cc1`, 4.1 µg/mL (≈ 18.2 µM).
With `CCC(C(=O)Nc1cc(Cl)c(OC)cc1OC)c1ccccc1` (stereo not drawn), the kinetic solubility is under 0.7 µg/mL.
The value for `O=C(Nc1ncccn1)c1ccc([N+](=O)[O-])cc1Cl` was 27.8 µg/mL (≈ 99.8 µM); that for `O=C(CN1CCOCC1)Nc1ccc([N+](=O)[O-])cc1` was 39.3 µg/mL (≈ 148 µM).
The value for `COc1ccc(NC2=CC(=O)CC(C)(C)C2)cc1` was over 36.8 µg/mL.
As for `COc1ccc(NC(=O)c2ccccc2NC(=O)C2CC=CCC2C(=O)O)cc1` (stereo not drawn), the figure is over 59.2 µg/mL; as for `CCN1CCN(C(=O)/C=C/c2ccc(OC)c(OC)c2)CC1`, over 45.7 µg/mL.
Take `CC(=O)NC1(C(F)(F)F)C(=O)Nc2c1c(=O)[nH]c(=O)n2CC(C)C` (stereo not drawn): the kinetic solubility is under 0.2 µg/mL.
Consider `O=C(Nc1ccc(Cn2ccnc2)cc1)c1cccc(C(F)(F)F)c1`, for which the solubility (kinetic) was 1.6 µg/mL (≈ 4.63 µM).
As for `CCOc1cccc(/C=C(\C#N)C(=O)NC2CC2)c1`, the figure is 27.2 µg/mL (≈ 106 µM).
For `CC1(CO)COC2(OC1)C(=O)Nc1ccccc12` (stereo not drawn), the kinetic solubility is over 37.4 µg/mL.
The value for `Cc1ccc(NC(=O)C2CCN(C(=O)c3ccco3)CC2)cc1C` was 45.1 µg/mL (≈ 138 µM); that for `CCC1CCC(N2CCN(c3ccc(F)cc3)CC2)CC1` (stereo not drawn) was 24.1 µg/mL (≈ 83 µM).
The value for `O=[N+]([O-])c1ccc(Cl)c2cccnc12` was 24.6 µg/mL (≈ 118 µM).
The value for `O=C(O)CC1(CC(=O)NCc2ccncc2)CCCCC1` was over 43.6 µg/mL; that for `CNC(=O)COC(=O)COc1ccc2c(C)cc(=O)oc2c1` was over 45.8 µg/mL.
In the case of `O=C(Nc1cccc(Cl)c1)Nc1ccon1`, the solubility (kinetic) was 10.7 µg/mL (≈ 45 µM).
The value for `Cc1noc(C)c1NC(=O)N1CCN(Cc2ccccc2)CC1` was over 47.2 µg/mL; that for `CCN(c1ccccc1)S(=O)(=O)c1ccc(C(=O)Nc2cccc(NC(C)=O)c2)cc1` was 3.7 µg/mL (≈ 8.46 µM); that for `O=C(CNC(=O)c1ccccc1)Oc1ccc([N+](=O)[O-])cc1` was over 45 µg/mL.
The value for `O=C(Nc1ccc2oc(-c3ccncc3)nc2c1)c1ccco1` was 12.7 µg/mL (≈ 41.6 µM); that for `CCNC(=O)C12CCC(C)(C(=O)O1)C2(C)C` (stereo not drawn) was 31.8 µg/mL (≈ 141 µM); that for `CC1CCC(NC(=O)C2COc3ccccc3O2)CC1` (stereo not drawn) was 5.5 µg/mL (≈ 20 µM).
As for `O=[N+]([O-])/C=C\c1ccc(N2CCOCC2)cc1`, the figure is 16.5 µg/mL (≈ 70.4 µM); as for `CN(C)S(=O)(=O)c1cccc(C(=O)NCCCn2ccnc2)c1`, over 50.5 µg/mL.
As for `COc1ccc(C)cc1NC(=S)N1CCOCC1`, the kinetic solubility is over 40 µg/mL.
As to `Clc1ccccc1C(c1ccccc1)(c1ccccc1)n1ccnc1`, the solubility (kinetic) turned out to be 3.7 µg/mL (≈ 10.7 µM).
As for `Cc1cc(C(=O)COc2ccc([N+](=O)[O-])cc2)c(C)n1C1CC1`, the figure is 2.2 µg/mL (≈ 7 µM); as for `CC(=O)c1cccc(NC(=O)COC(=O)CCNS(=O)(=O)c2ccccc2)c1`, over 60.7 µg/mL.
The value for `Cc1nc(CC(=O)c2ccc(O)c(C)c2O)cs1` was 36.7 µg/mL (≈ 139 µM); that for `Cc1ccc(OC(=O)c2cncc(Br)c2)c(C)c1` was 6.8 µg/mL (≈ 22.2 µM); that for `CCN1CCC(NCC2CCCCC2)CC1` was 23.2 µg/mL (≈ 103 µM).
As for `Cc1ccc(-c2csc(NC(=O)C3CC(=O)N(Cc4ccco4)C3)n2)cc1` (stereo not drawn), the figure is 12.1 µg/mL (≈ 31.7 µM).
On to `OCCC1CN(C/C=C/c2ccco2)CCN1Cc1ccccc1` (stereo not drawn), for which the solubility (kinetic) came out at 40 µg/mL (≈ 123 µM).
As for `CCCOc1ccc(C(=O)NCCN2CCOCC2)cc1.Cl`, the figure is over 49.3 µg/mL.
As for `CCCC(=O)Nc1ccc2c(c1)nc(CCNC(=O)c1ccco1)n2C`, the figure is over 53.2 µg/mL; as for `Nc1ccccc1C(=O)NCC1(c2ccccc2)CCCC1`, over 44.2 µg/mL; as for `COc1ccccc1C(=O)C1CCCN(Cc2ccc3c(c2)OCCO3)C1` (stereo not drawn), 36.7 µg/mL (≈ 99.9 µM).
The value for `CC(=O)Nc1nc(-c2cc([N+](=O)[O-])cs2)cs1` was 0.7 µg/mL (≈ 2.6 µM); that for `COCCNC(=O)/C(C#N)=C/c1ccc(C(=O)O)cc1` was over 41.1 µg/mL; that for `N#Cc1ccc(OCC(=O)OCC(=O)NC2CC2)cc1` was over 41.1 µg/mL.
The compound `COc1ccc(NC(=O)c2cccc(Oc3ccccc3)c2)cn1` returned a solubility (kinetic) of 8.8 µg/mL (≈ 27.5 µM).
Regarding `CC1(C)CC2CC(C)(CN2C(=S)Nc2ccccc2)C1` (stereo not drawn), the solubility (kinetic) is 41.6 µg/mL (≈ 144 µM).
`O=C(CN1C(=O)C(=O)N(C2CCCC2)C1=O)NCCc1ccc(F)cc1`: the kinetic solubility was over 54.2 µg/mL.
As for `CS(=O)(=O)N1Cc2ccccc2CC1C(=O)OCC(=O)NCCc1ccc(S(N)(=O)=O)cc1` (stereo not drawn), the figure is 59.1 µg/mL (≈ 119 µM).
The value for `O=C(COC(=O)c1ccc(F)c([N+](=O)[O-])c1)NC(=O)NCc1ccccc1` was 21.3 µg/mL (≈ 56.8 µM).
As for `CC(Cc1cccs1)NCc1ccccc1` (stereo not drawn), the figure is 22.3 µg/mL (≈ 96.4 µM).
In turn, `Cc1nc(N2CCNCC2)c2c3c(sc2n1)CCCC3` gave a solubility (kinetic) of 26.7 µg/mL (≈ 92.6 µM).
As for `O=c1[nH]c(=S)n(-c2ccccc2F)c(O)c1C=NCCN1CCNCC1`, the figure is 55.3 µg/mL (≈ 147 µM).
As for `Cc1cccc(N(C)S(=O)(=O)c2csc(C(N)=O)c2)c1`, the figure is over 46.6 µg/mL; as for `CN1[C@@H](CC(=O)c2ccccc2)CCC[C@H]1C[C@H](O)c1ccccc1.Cl`, over 56.1 µg/mL; as for `O=C(CN1C(=O)NC2(CCOc3ccccc32)C1=O)N1CCCCC1` (stereo not drawn), over 51.5 µg/mL.
Compound `CC(=O)c1cc(C#N)c(SCC(=O)Nc2nccs2)nc1C` yielded a kinetic solubility of 0.7 µg/mL (≈ 2.11 µM).
As to `Nc1ccc(S(=O)(=O)N2CCCC2)cc1Cl`, the solubility (kinetic) is over 39.1 µg/mL.
As to `NC(=[NH2+])SCc1[nH+]cccc1O.[Cl-]`, the solubility (kinetic) is 35.3 µg/mL.
As for `COc1ccc(CNC(=O)CN(c2ccccc2OC)S(=O)(=O)c2cccs2)cc1`, the figure is 10.7 µg/mL (≈ 24 µM); as for `CC[C@H](CO)NCCN[C@H](CC)CO.Cl`, over 41.6 µg/mL; as for `O=C(COC(=O)CCSc1ccccc1)Nc1ccccc1Br`, 18.2 µg/mL (≈ 46.2 µM).
As for `O=C(c1ccccn1)c1ccc2ccccc2n1`, the figure is 28.8 µg/mL (≈ 123 µM); as for `CC(=O)Cc1nsc(Nc2cccc(C)c2)n1`, 30.5 µg/mL (≈ 123 µM).
The compound `Cc1cc(C)nc(SCc2c(F)cccc2Cl)n1` yielded a kinetic solubility of under 0.3 µg/mL.
As for `COc1cc(NC(=O)CCN2CC(C)OC(C)C2)cc(OC)c1` (stereo not drawn), the figure is 34.3 µg/mL (≈ 106 µM).
The value for `Cc1cccc(C)c1NC(=O)CN1CCN(C(=O)c2ccc(OCc3cn4ccccc4n3)cc2)CC1` was over 74.6 µg/mL; that for `COc1ccc2c(ccn2S(=O)(=O)c2ccccc2)c1` was 1.6 µg/mL (≈ 5.57 µM); that for `Cc1n(Cc2ccccc2)c2ccccc2[n+]1Cc1ccccc1.[Cl-]` was 51.9 µg/mL.
Take `O=C(NNC(=O)C1CCN(S(=O)(=O)c2ccccc2)CC1)c1ccccc1O`: the solubility (kinetic) was over 60.5 µg/mL.
The value for `CN(Cc1ccccc1)C(=O)c1ccc(S(=O)(=O)N(C)c2ccccc2)cc1` was 26.1 µg/mL (≈ 66.2 µM); that for `COC(=O)c1sc(-c2ccc(Cl)cc2)cc1N` was under 0.6 µg/mL; that for `Cc1cc(C(=O)Nc2ccc3ccccc3c2)oc1C` was 3.8 µg/mL (≈ 14.3 µM).
Compound `O=C1NCCO1` showed a solubility (kinetic) of over 13.1 µg/mL.
For the compound `COc1ccc(OC)c(NC(=O)CN2c3cccc4cccc(c34)S2(=O)=O)c1`, the kinetic solubility is 2.2 µg/mL (≈ 5.52 µM).
The value for `Cc1ccc(C(=O)N/N=C\c2cccnc2)s1` was over 36.8 µg/mL; that for `CC(NC(=O)CCc1c[nH]c2ccccc12)c1ccccc1` (stereo not drawn) was over 43.9 µg/mL; that for `CCOC(=O)C1=C(C)N(C)C(C)=C(C(=O)OCC)C1c1ccsc1` was 2 µg/mL (≈ 5.72 µM).
As for `O=C(O)C1C2CCC(C2)C1C(=O)N1CCCC1` (stereo not drawn), the figure is over 35.6 µg/mL; as for `CCOC(=O)C1=C(COC(=O)C2CC(=O)N(CCc3ccccc3)C2)NC(=O)NC1C` (stereo not drawn), over 64.4 µg/mL.
As for `COc1ccc(NC(=O)c2cc(C)n(Cc3cccs3)c2C)cc1`, the figure is 1.3 µg/mL (≈ 3.82 µM); as for `CNC(=O)c1sc(-c2cccs2)nc1C`, over 35.7 µg/mL.
For `CC1CCC2(CC1)NC(=O)N(CC(=O)Nc1cccc(S(=O)(=O)N3CCCCC3)c1)C2=O` (stereo not drawn), the solubility (kinetic) stood at 2.2 µg/mL (≈ 4.76 µM).
The value for `O=C(Cn1ccccc1=S)c1ccc(Cl)c(Cl)c1` was 6.3 µg/mL (≈ 21.1 µM); that for `COc1ccc(C(=O)C2CCCN(C(=O)C3=CCCC3)C2)c(C)c1` (stereo not drawn) was over 49.1 µg/mL; that for `CCOC(=O)c1ccc(NC(=O)c2nc(SC)ncc2Cl)cc1` was 1 µg/mL (≈ 2.84 µM).
In turn, `COc1ccc(CC(=O)OCC(=O)Nc2cccc(Cl)c2)cc1` gave a kinetic solubility of 34 µg/mL (≈ 102 µM).
On to `CC(Sc1ccc(S(=O)(=O)N2CCOCC2)cn1)c1ccccc1Cl` (stereo not drawn), for which the kinetic solubility is 5.9 µg/mL (≈ 14.8 µM).
As for `CCOc1ccccc1/C=N/OCC(=O)NCc1ccc(F)cc1`, the figure is 32.9 µg/mL (≈ 99.6 µM); as for `FC(F)(F)c1cccc(NC2=NCCCS2)c1`, 33.7 µg/mL (≈ 129 µM).
The value for `O=C(NCc1ccccc1Cl)c1cc(C(=O)C2CC2)c[nH]1` was under 0.3 µg/mL; that for `O=C(c1ccccc1F)N1CCOCC1` was over 31.4 µg/mL.
As for `O=C1NC(=O)N(Cc2ccccc2)C1=O`, the figure is over 30.6 µg/mL.
As to `COc1ccc(C(=O)OCC(=O)NC(=O)NC(C)C)cc1OC`, the kinetic solubility is over 48.6 µg/mL.
